Our source for the Kd values is ChEMBL document CHEMBL3991601, “The target landscape of clinical kinase drugs” (Science, 2017).

The structures appear in SMILES notation. The source made the active and inactive calls. A value given as a limit tells only on which side of the number the result lay.

The target of experiment [1] is Serine/threonine-protein kinase 16 (Homo sapiens, UniProt O75716).
For a further experiment, the target named is T1, Glycine--tRNA ligase (Homo sapiens, UniProt P41250).
T1 sequence (P41250 whole entry): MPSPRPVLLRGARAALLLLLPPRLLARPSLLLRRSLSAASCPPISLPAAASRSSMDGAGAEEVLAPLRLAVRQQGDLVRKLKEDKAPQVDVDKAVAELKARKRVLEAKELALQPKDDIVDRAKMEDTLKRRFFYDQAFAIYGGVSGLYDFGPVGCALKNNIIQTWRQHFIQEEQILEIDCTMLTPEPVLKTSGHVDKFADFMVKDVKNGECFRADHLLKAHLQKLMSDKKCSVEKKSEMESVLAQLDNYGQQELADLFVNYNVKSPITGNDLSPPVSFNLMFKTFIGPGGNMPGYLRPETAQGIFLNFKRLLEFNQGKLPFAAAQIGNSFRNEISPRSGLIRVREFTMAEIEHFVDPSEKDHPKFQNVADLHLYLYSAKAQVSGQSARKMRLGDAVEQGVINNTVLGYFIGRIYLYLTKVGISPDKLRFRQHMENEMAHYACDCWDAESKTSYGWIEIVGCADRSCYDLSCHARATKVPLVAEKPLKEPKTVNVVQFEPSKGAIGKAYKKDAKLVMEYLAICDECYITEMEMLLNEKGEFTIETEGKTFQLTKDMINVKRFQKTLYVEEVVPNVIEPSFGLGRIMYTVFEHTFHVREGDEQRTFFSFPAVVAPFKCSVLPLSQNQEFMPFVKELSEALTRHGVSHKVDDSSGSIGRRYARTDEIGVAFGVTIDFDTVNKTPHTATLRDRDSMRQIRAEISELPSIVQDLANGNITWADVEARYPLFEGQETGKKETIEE

Experiment [2] addresses T2, Electron transfer flavoprotein subunit beta (Homo sapiens, UniProt P38117).
T2 sequence (P38117 whole entry): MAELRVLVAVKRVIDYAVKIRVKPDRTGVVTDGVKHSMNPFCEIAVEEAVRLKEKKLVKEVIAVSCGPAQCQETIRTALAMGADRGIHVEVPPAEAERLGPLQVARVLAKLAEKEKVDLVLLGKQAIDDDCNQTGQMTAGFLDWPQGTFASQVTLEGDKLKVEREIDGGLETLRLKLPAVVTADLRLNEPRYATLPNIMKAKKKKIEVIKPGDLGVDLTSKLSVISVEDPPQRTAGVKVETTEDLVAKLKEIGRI

Experiment [3] concerns the target Mitogen-activated protein kinase 11 (Homo sapiens, UniProt Q15759).
The target of another experiment is Focal adhesion kinase 1 (Homo sapiens, UniProt Q05397).
Focal adhesion kinase 1, sequence (Q05397 whole entry): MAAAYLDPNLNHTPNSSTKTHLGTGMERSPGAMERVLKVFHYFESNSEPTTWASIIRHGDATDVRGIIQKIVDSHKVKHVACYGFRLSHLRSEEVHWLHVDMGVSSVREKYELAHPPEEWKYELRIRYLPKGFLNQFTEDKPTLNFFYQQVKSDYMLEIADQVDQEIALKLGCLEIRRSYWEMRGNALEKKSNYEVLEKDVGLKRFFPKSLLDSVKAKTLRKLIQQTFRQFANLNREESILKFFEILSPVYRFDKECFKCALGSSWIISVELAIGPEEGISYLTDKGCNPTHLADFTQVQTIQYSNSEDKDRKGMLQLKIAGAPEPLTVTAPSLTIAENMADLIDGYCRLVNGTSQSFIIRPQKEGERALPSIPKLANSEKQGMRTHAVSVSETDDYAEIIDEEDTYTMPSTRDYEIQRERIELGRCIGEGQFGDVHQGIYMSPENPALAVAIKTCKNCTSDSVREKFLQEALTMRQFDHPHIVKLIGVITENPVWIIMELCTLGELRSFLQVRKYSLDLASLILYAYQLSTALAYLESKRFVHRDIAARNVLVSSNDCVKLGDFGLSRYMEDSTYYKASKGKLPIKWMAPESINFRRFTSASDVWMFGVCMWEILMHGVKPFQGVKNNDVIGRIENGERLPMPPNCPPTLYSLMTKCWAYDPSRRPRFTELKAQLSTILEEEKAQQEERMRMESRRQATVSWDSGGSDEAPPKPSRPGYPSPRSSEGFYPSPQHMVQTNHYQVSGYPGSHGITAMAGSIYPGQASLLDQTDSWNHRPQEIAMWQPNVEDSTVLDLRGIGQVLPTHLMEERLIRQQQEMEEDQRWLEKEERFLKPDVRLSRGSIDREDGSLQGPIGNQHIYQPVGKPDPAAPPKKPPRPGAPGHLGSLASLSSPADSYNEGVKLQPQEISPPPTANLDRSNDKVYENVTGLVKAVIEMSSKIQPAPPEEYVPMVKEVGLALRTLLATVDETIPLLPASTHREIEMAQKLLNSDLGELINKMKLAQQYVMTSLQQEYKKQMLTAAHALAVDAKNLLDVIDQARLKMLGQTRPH
For experiment [4], the target named is Serine/threonine-protein kinase SIK3 (Homo sapiens, UniProt Q9Y2K2).
Serine/threonine-protein kinase SIK3, sequence (Q9Y2K2 whole entry): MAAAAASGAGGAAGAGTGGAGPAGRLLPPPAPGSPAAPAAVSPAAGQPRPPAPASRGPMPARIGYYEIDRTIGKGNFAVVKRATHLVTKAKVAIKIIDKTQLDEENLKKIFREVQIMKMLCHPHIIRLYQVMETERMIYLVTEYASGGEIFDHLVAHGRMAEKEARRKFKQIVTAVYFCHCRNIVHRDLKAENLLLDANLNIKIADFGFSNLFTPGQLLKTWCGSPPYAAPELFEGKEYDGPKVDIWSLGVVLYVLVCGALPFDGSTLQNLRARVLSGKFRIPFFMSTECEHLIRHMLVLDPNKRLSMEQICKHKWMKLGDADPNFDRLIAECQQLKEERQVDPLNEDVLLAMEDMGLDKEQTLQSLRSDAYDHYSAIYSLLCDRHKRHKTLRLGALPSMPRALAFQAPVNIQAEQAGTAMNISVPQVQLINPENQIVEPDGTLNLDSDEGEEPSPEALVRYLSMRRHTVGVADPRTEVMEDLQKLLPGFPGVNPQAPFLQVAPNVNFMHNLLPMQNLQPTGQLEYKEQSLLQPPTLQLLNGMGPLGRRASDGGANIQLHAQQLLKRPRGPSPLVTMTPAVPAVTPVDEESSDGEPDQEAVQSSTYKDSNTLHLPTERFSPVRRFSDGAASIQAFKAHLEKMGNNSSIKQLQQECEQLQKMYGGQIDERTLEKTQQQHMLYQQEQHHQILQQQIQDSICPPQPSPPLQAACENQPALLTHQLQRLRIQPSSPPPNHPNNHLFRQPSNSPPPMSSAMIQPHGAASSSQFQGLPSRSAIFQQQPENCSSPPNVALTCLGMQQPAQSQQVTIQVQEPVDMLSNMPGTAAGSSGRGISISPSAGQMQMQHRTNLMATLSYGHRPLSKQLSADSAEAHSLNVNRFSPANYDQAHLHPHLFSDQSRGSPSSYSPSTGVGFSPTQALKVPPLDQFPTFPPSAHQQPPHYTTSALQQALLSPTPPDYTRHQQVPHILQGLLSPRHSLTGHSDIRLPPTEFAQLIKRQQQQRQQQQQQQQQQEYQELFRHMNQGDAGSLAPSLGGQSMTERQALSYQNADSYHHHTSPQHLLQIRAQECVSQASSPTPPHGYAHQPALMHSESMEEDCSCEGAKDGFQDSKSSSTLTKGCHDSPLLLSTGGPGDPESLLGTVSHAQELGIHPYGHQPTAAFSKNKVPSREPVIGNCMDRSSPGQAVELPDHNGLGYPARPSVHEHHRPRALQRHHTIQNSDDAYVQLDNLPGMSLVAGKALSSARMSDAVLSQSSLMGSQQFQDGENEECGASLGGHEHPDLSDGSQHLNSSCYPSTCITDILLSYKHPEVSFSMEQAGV
Experiment [5] concerns the target T3, cGMP-dependent protein kinase 1 (Homo sapiens, UniProt Q13976).
T3 sequence (Q13976 whole entry): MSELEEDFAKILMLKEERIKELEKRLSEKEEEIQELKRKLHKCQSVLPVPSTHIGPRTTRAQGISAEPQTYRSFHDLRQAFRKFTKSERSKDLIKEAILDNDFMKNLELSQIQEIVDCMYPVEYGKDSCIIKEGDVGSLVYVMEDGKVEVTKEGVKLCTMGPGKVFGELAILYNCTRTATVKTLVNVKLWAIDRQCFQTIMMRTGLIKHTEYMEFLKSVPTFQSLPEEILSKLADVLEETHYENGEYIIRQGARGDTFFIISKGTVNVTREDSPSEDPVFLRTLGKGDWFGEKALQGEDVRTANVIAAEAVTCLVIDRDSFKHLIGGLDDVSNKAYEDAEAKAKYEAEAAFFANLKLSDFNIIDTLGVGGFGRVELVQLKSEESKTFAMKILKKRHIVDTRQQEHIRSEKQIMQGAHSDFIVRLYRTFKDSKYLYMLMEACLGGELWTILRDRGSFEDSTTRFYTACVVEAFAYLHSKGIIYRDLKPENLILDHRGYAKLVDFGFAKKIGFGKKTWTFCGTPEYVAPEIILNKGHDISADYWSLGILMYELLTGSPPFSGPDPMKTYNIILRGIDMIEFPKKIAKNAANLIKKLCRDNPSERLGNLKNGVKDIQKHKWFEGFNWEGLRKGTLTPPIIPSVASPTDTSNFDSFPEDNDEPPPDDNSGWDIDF

The target of experiment [6] is cAMP-dependent protein kinase type II-alpha regulatory subunit (Homo sapiens, UniProt P13861).
cAMP-dependent protein kinase type II-alpha regulatory subunit, sequence (P13861 whole entry): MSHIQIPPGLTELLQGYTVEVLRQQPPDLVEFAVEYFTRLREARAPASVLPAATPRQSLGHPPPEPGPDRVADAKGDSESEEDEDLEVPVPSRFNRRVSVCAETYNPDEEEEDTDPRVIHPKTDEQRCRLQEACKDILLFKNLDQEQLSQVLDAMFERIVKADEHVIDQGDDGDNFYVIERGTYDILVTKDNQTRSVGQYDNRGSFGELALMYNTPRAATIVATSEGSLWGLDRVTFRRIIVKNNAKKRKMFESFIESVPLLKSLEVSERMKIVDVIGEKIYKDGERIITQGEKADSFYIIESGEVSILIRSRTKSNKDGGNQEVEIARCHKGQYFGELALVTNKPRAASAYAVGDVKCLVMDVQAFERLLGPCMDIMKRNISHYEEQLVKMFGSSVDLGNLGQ
Also: in the data inactive means no Kd found up to 30 µM.

Mitogen-activated protein kinase 11, sequence (Q15759 whole entry): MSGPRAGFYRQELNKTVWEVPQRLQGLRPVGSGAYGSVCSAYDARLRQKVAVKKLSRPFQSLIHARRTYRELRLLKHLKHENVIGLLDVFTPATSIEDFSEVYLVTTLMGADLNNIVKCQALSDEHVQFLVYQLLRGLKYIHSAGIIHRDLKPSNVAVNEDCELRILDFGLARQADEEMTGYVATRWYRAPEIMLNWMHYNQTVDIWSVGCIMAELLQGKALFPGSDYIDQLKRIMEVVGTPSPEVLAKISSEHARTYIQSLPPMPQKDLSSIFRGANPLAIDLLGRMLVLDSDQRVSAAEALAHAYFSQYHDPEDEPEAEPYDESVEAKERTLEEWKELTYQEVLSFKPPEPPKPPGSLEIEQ
Serine/threonine-protein kinase 16, sequence (O75716 whole entry): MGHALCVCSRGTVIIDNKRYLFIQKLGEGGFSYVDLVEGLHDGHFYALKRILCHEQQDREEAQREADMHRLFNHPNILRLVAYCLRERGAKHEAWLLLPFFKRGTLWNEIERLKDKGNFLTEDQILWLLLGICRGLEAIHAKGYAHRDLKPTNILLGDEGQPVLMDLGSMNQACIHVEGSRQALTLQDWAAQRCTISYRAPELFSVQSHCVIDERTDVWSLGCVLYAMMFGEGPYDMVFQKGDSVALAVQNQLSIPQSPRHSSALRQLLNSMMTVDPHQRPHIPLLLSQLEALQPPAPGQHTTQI

As to `C[C@@H](Nc1cc(F)cc(F)c1)c1cc(C(=O)N(C)C)cc2c(=O)cc(N3CCOCC3)oc12` [AZD-8186], the Kd (in experiment [1]; at Glycine--tRNA ligase; in experiment [2]; in experiment [3]; on Focal adhesion kinase 1; in experiment [4]) was > 30 µM (inactive) each time. Moreover, the Kd in experiment [5] is > 30 µM (inactive).

As for `COc1cc(OC)c(/C=C/S(=O)(=O)Cc2ccc(OC)c(NCC(=O)O)c2)c(OC)c1` [RIGOSERTIB], the Kd (in experiment [1]; on Glycine--tRNA ligase; in experiment [3]; at Focal adhesion kinase 1; in experiment [4]; in experiment [6]) was > 30 µM (inactive) in each case. In experiment [5], the Kd was > 30 µM (inactive).

`Cc1ccc(S(=O)(=O)Nc2nc3ccccc3nc2Nc2ccc3nsnc3c2)cc1`: the Kd (in experiment [1]; on Glycine--tRNA ligase; in experiment [3]; at Focal adhesion kinase 1; in experiment [4]; in experiment [5]) was > 30 µM (inactive) in each case.

In the case of `Cc1nc(N)sc1-c1ccnc(Nc2ccc(N3CCOCC3)cc2)n1` [CYC-116], the Kd is 0.21 µM (active) in experiment [1]; > 30 µM (inactive) on Glycine--tRNA ligase; > 30 µM (inactive) in experiment [2]; > 30 µM (inactive) in experiment [3]; 13 µM (active) at Focal adhesion kinase 1.

In the case of `Cc1cc(Nc2cc(N3CCN(C)CC3)nc(/C=C/c3ccccc3)n2)n[nH]1` [ENMD-2076], the dissociation constant (Kd) in experiment [1] was 0.702 µM (active); on Glycine--tRNA ligase, > 30 µM (inactive); in experiment [2], > 30 µM (inactive); in experiment [3], > 30 µM (inactive); in experiment [4], > 30 µM (inactive); in experiment [6] it was > 30 µM (inactive).

Turning to `O=C(Nc1cccc(Cl)c1)Nc1ncc(CCNc2ncnc3ccsc23)s1` [SNS-314], the Kd (in experiment [1]; on Glycine--tRNA ligase; in experiment [2]; in experiment [3]; in experiment [4]; in experiment [6]) was > 30 µM (inactive) each time.

For `Nc1nc(N)c2nc(-c3cccc(O)c3)c(-c3cccc(O)c3)nc2n1` [TG100-115], the Kd (at Glycine--tRNA ligase; in experiment [6]) was > 30 µM (inactive) in each case.

`CN1CCN(c2ccc3nc(-c4c(N)c5c(F)cccc5[nH]c4=O)[nH]c3c2)CC1` [DOVITINIB]: the Kd (on Glycine--tRNA ligase; in experiment [2]; in experiment [6]) was > 30 µM (inactive) each time.

For the compound `C1=C/COCc2cc(ccc2OCCN2CCCC2)Nc2nccc(n2)-c2cccc(c2)COC/1` [PACRITINIB], the dissociation constant Kd in experiment [1] was 1.87 µM (active); on Glycine--tRNA ligase, > 30 µM (inactive); in experiment [3], > 30 µM (inactive); on Focal adhesion kinase 1 it was > 30 µM (inactive); in experiment [4] it was > 30 µM (inactive); in experiment [6], > 30 µM (inactive). The Kd in experiment [5] was 1.52 µM (active).

For `CCc1cnn2c(NCc3ccc[n+]([O-])c3)cc(N3CCCC[C@H]3CCO)nc12` [DINACICLIB], the Kd (in experiment [1]; at Glycine--tRNA ligase; in experiment [2]; in experiment [3]; in experiment [4]; in experiment [6]) was > 30 µM (inactive) each time. Also, the Kd in experiment [5] was > 30 µM (inactive).

On to `OCCn1cc(-c2cnc3nnn(Cc4ccc5ncccc5c4)c3n2)cn1` [PF-04217903], for which the Kd (in experiment [1]; at Glycine--tRNA ligase; in experiment [2]; in experiment [3]; in experiment [4]; in experiment [6]) was > 30 µM (inactive) in each case. In addition, the Kd in experiment [5] is > 30 µM (inactive).

Consider `COc1cc(CCc2cc(NC(=O)c3ccc(N4C[C@@H](C)N[C@@H](C)C4)cc3)n[nH]2)cc(OC)c1` [AZD-4547], for which the Kd (in experiment [1]; at Glycine--tRNA ligase; in experiment [3]; at Focal adhesion kinase 1; in experiment [4]; in experiment [6]) was > 30 µM (inactive) throughout. Besides, the Kd in experiment [5] was > 30 µM (inactive).

Regarding `CCn1c(-c2nonc2N)nc2c(C#CC(C)(C)O)ncc(OC[C@H]3CCCNC3)c21` [GSK-690693], the Kd is > 30 µM (inactive) at Glycine--tRNA ligase, > 30 µM (inactive) in experiment [2] and 0.052 µM in experiment [6].

For the compound `Cn1cc(-c2ccc(F)c(C(F)(F)F)c2)nc1C1CCN(c2ncnc3[nH]ncc23)CC1` [LY-2584702], the Kd (in experiment [1]; at Glycine--tRNA ligase; in experiment [3]; on Focal adhesion kinase 1; in experiment [4]; in experiment [5]) was > 30 µM (inactive) throughout.

As for `Cc1cn(-c2cc(NC(=O)c3ccc(C)c(Nc4nccc(-c5cccnc5)n4)c3)cc(C(F)(F)F)c2)cn1` [NILOTINIB], the Kd (at Glycine--tRNA ligase; in experiment [6]) was > 30 µM (inactive) each time.

Take `CNC(=O)c1ccc(C)c(-n2c(C)cc(OCc3ccc(F)cc3F)c(Br)c2=O)c1` [PH-797804]: the Kd (in experiment [1]; on Glycine--tRNA ligase; in experiment [2]; at Focal adhesion kinase 1; in experiment [4]; in experiment [5]) was > 30 µM (inactive) throughout.

As to `Cc1c(F)cc(C(=O)NC2CC2)cc1-c1ccc(C(=O)NCC(C)(C)C)cn1` [LOSMAPIMOD], the Kd (in experiment [1]; on Glycine--tRNA ligase; on Focal adhesion kinase 1; in experiment [4]; in experiment [6]; in experiment [5]) was > 30 µM (inactive) each time.

Take `C=CC(=O)N1CCC(Oc2cc3c(Nc4ccc(Cl)c(Cl)c4F)ncnc3cc2OC)CC1` [POZIOTINIB]: the Kd (in experiment [1]; at Glycine--tRNA ligase; in experiment [3]; at Focal adhesion kinase 1; in experiment [4]; in experiment [5]) was > 30 µM (inactive) in each case.

Consider `O=C1NC(=O)/C(=C/c2ccc3nccc(-c4ccncc4)c3c2)S1` [GSK-1059615], for which the Kd (in experiment [1]; on Glycine--tRNA ligase; in experiment [3]; at Focal adhesion kinase 1; in experiment [4]; in experiment [6]) was > 30 µM (inactive) in each case. The Kd in experiment [5] was > 30 µM (inactive).

Regarding `CC(C)Nc1cc(-c2c[nH]c(C(=O)N[C@H](CO)c3cccc(Cl)c3)c2)c(Cl)cn1` [ULIXERTINIB], the Kd (in experiment [1]; on Glycine--tRNA ligase; in experiment [3]; at Focal adhesion kinase 1; in experiment [4]; in experiment [6]) was > 30 µM (inactive) each time. Moreover, the Kd in experiment [5] is > 30 µM (inactive).

In general, Kd refers to the equilibrium constant for the complex coming apart.
